Where two headings read alike, the source gives them in different places.
Tests used:
NMDA receptor = assay type: cell-based, Sprague-Dawley rat
AMPA receptors = assay: Whole-cell patch-clamp recording of Aβ-induced currents with Mg2+, no glycine, with or without cyclothiazide; assay type: cell-based, Sprague-Dawley rat; conditions: Aβ 1 µM + CTZ 100 µM; CNQX 30 µM; n=6
Text: (§1) Primary neuron cultures were obtained from the cortical lobes of E18 Sprague-Dawley rat embryos according to previously described procedures (Gottlieb M. et al. 2006. Neurobiol. Dis. 23 374-386.) Cells were resuspended in B27 Neurobasal medium plus 10% FBS (Sigma; St Louis, MO, USA) and then seeded onto poly-1-ornithine-coated glass coverslips at 1x10^5 cells per coverslip (12 mm in diameter) and 48-well plates at 1.5 x 10^5 per well. One day later, the medium was replaced by serum-free-, B27-supplemented Neurobasal medium. The cultures were essentially free of astrocytes and microglia; they were maintained at 37°C and 5% CO2. Cultures were used 8-10 days after plating.
Whole-cell recordings were performed at room temperature using the EPC-7 patch-clamp amplifier (HEKA Elektronik, Lambrecht, Germany). Currents were recorded at a holding membrane potential of -70 mV. Extracellular bath solution with a pH of 7.3 contained the following (in mM): 140 NaCl, 5 KCl, 2.5 CaCl2, 1 MgCl2, 10 HEPES and 10 mM glucose. Patch-clamp pipettes (3-5 MΩ) were filled with internal solution at a pH of 7.3 containing the following (in mM): 140 K-gluconate, 1 CaCl2, 2 MgCl2, 10 HEPES, 10 EGTA, 2 Mg-ATP, 0.2 Na-GTP.
We then measured the effects of antagonists of NMDA or AMPA receptor on [Ca^2+]¡ in neurons exposed to Aβ plus CTZ (5 µM and 100 µM, respectively; Fig 2B).

[1] = system: cultured cortical neurons; assay: Ca2+ imaging in the cytosol (fura-2 AM); assay type: cell-based, Sprague-Dawley rat; conditions: for effect on Aβ-induced increase in [Ca2+]i: Aβ 5 µM, coapplication, NMDA antagonists n=70, voltage-gated Ca2+ channel inhibitors n=66
Text: as §1
[Ca^2+]¡ was determined according to the method described previously (G. Grynkiewicz, et al. 1985. J. Biol. Chem. 260:3440-3450). Neurons were loaded with fura-2 AM (5 µM; Molecular Probes, Invitrogen, Barcelona, Spain) in culture medium for 30 min at 37°C. Cells were washed in HBSS containing 20 mM HEPES, pH 7.4, 10 mM glucose, and 2 mM CaCl2 (incubation buffer) for 10 min at room temperature. Experiments were performed in a coverslip chamber continuously perfused with incubation buffer at 4 ml/min. The perfusion chamber was mounted on the stage of a inverted epifluorescence microscope (Zeiss Axiovert 35; Oberkochen, Germany) equipped with a 150 W xenon lamp Polychrome IV (T.I.L.L. Photonics, Martinsried, Germany) and a Plan Neofluar 40 x oil immersion objective (Zeiss). Cells were visualized with a high-resolution digital black/white CCD camera (ORCA C4742-80-12 AG; Hamamatsu Photonics Iberica). […] At the end of the assay, in situ calibration was performed with the successive addition of […] and 2 M Tris/50 mM EGTA, pH 8.5. Data were analyzed with Excel (Microsoft, Seattle, WA, USA) and Prism (GraphPad Software, San Diego, CA, USA) software.

Cortical neurons [2] = assay: Cell viability and toxicity assay (LDH release); assay type: cell-based, Sprague-Dawley rat
Text: as §1
Antagonists and inhibitors were added to the cultures 30 min before the Aβ. Twenty four hours after drug application, cellular damage was estimated by measuring the level of lactate dehydrogenase released (LDH; Cytotox 96®, Promega, Madison, WI) from damaged cells into the culture media. Data were normalized to the activity of LDH released from vehicle-treated cells (100%) and calculated as a percentage of the control. Results were expressed as the means ± SEM of at least three independent experiments performed in triplicates.

Cortical neurons [3] = assay: Measurement of intracellular reactive oxygen species (CM-H2DCFDA); assay type: cell-based, Sprague-Dawley rat; conditions: 2 hours
Text: as §1
Neurons were exposed to Aβ oligomers alone or with GluR antagonists as described. Cells were loaded with CM-H2DCFDA at 30 µM to assay the ROS levels. Calcein-AM (1 µM; Molecular Probes, Invitrogen, Barcelona, Spain) was used to quantify the number of cells within the reading field. Fluorescence was measured using a Synergy-HT fluorimeter (Bio-Tek Instruments Incl, Beverly, MA, USA; excitation at 485 nm, emission at 527 nm). All experiments (n≥3) were performed at least in quadruplicate and plotted as means ± SEM.

Cortical neurons [4] = assay: Analysis of mitochondrial membrane potential (JC-1); assay type: cell-based, Sprague-Dawley rat; conditions: Aβ 5 µM, 2 hours, in conjunction with GluR antagonist
Text: as §1
Briefly, after drug treatment, cells were loaded with 3 µM JC-1 for 15 min at 37°C and were washed with HBSS without phenol red by two times to eliminate the excess of dye. In the cytosol the monomeric form of this dye fluoresces green (excitation at 485 nm, emission at 527 nm), whereas within the mitochondrial matrix highly concentrated JC-1 forms aggregates that fluoresce red (excitation at 485 nm, emission at 590 nm). Both JC-1 monomers and aggregates were detectable using a Synergy-HT fluorimeter (Bio-Tek Instruments Incl, Beverly, MA, USA) and the changes in mitochondrial potential were calculated as the red/green ratio in each condition. All experiments (n≥3) were performed at least in triplicate and plotted as meant SEM.

[5] = system: neurons from CA1 in organotypic slices; assay: Measurement of Ca2+ in organotypic slices (fluo-4); assay type: cell-based; conditions: for [Ca2+]i in CA1 neurons of organotypic slices: kainate 1 mM (positive control)
Text: (§2) Brain was removed and two hemispheres were separated in HBSS. Thalamus and midbrain was removed and each hemisphere sliced with a tissue chopper (McIlwan Tissue Chopper, Campden Instruments Ltd, Lafayette, IN, USA) in order to obtain coronal slices of 400 µm of thickness. Entorhinal cortex, in connection with hippocampus, were isolated under a dissection microscope, 2 slices plated on each Millicell CM culture inserts (Millipore Ibérica, Madrid, Spain) and maintained in Neurobasal medium supplemented with 0.5% B27, 25% horse serum, 25% HBSS and […] gentamycin at 37°C. Experiments were performed at 7-10 days in vitro.
Ca^2+ levels in hippocampus were monitored by fluorescence microscopy using the Ca^2+ indicator fluo-4 (Molecular Probes, Invitrogen, Barcelona, Spain). Slices were incubated with fluo-4-AM (5 µM and 0.01 % of pluronic acid) for 45 min at 37 °C. Experiments were performed in a chamber continuously perfused with incubation buffer. Drugs were perfused by a micromanifold with a quartz/polyimide tube of 200 µm ID, attached to a micromanipulator in order to perfuse the drugs directly to the cells. The perfusion chamber was mounted on the stage of a Leica DMLFSA up-right microscope equipped with a 150 W xenon lamp Polychrome V (T.I.L.L. Photonics, Martinsried, Germany) and a HCX Apo 40 x water immersion objective (Leica). Cells were visualized with a CCD camera (EM CCD 9100; Hamamatsu Photonics Iberica, Barcelona, Spain).

[6] = system: entorhinal cortex-hippocampus organotypic cultures; assay: Cell death in organotypic cultures by propidium iodide uptake; assay type: cell-based; conditions: Aβ oligomers 100 nM, 4 days, co-incubation with MK801 10 µM or CNQX 30 µM
Text: as §2
Antagonists were added to cultures 30 min before the Aβ. Cell death in organotypic cultures was evaluated by cellular uptake of propidium iodide (PI). Slices were stained by adding 10 µM PI into the culture for 2 h at 37°C and washed with PBS by two times for 10 min. Slices were fixed with 4% PFA in PBS for 40 min at room temperature. Afterwards, the slices were excited with 510―560 nm light and the emitted fluorescence acquired at 610 nm using a rhodamine filter on an inverted fluorescence microscope (Cell Observer Z1, Zeiss). PI fluorescence images were captured with a Plan NeoFluar 2.5 x objective (Zeiss), using an EM CCD camera (Hamamatsu, C9100-13), controlled by Axio Vision program (Zeiss). Images were analyzed with the ImageJ analysis program (NIH, MD, USA) and neuronal cell death was expressed as the percentage of the mean gray value of each treatment vs. control.

neurons = assay: Measurement of mitochondrial Ca2+ (Rhod-2 AM); assay type: cell-based, Sprague-Dawley rat; conditions: for effect on Aβ-induced [Ca2+]mit rise: Aβ 5 µM together with NMDA receptor antagonist
Text: as §1
Rhod-2 AM (Molecular Probes, Invitrogen, Barcelona, Spain) was used to measure mitochondrial Ca^2+ according to the previous procedure with modifications (G. Hajnóczky, L.D. et al. 1995. Cell 82 415-424) Rhod2-AM has a net positive charge, which facilitates its sequestration into mitochondria due to membrane potential-driven uptake. Cells were loaded with 2 µM rhod2-AM for 6 hours. The residual cytosolic fraction of the dye was eliminated when the cells were kept in culture for an additional 18h after loading, whereas the mitochondrial dye fluorescence was maintained. Fluorescence images of rhod-2 were acquired using 550 nm excitation and 590 nm emission. The fluorescence of rhod-2 was not calibrated in terms of [Ca^2+]mit since it is not a ratiometric dye.

[7] = Aβ 5 µM, in conjunction with GluR antagonist
[8] = Aβ 5 µM, 24 h, AP5 100 µM, MK801 50 µM, memantine 50 µM, CNQX 30 µM, ZVAD-F 50 µM, DEVD 100 µM, DPQ 30 µM, added 30 min before Aβ

6-Cyano-7-nitroquinoxaline-2,3-dione [CNQX]
Aβ-produced inward current, Aβ + CNQX vs 100 % Aβ alone (NMDA receptor): 98.3 ± 6.8%
effect on current activated by Aβ with CTZ (AMPA receptors): blocked
[Ca2+]i increase, % of control [1]: 50 ± 4 % of control
effect on Aβ toxicity (Aβ-induced cell death) (Cortical neurons [2]): greatly attenuated
ROS levels with respect to control (100%, non-treated cells) (Cortical neurons [3]; [7]): 106 ± 6.3%
mitochondrial potential with respect to control (100%, non-treated cells) (Cortical neurons [4]): 86 ± 3%
effect on Aβ-induced [Ca2+]i response in organotypic slices ([5]; Aβ 20 µM in the pipette, MK801 50 µM (n=9), CNQX 30 µM (n=43), both (n=50)): greatly reduced
PI uptake, fold as compared to control slices treated with antagonist alone ([6]; entorhinal cortex): 0.73 ± .01 fold
PI uptake, fold as compared to control slices treated with antagonist alone ([6]; hippocampus): 1.3 ± 0.4 fold

O=C1NCCc2c(OCCCCN3CCCCC3)cccc21 [DPQ]
effect on Aβ toxicity (Aβ-induced cell death) (Cortical neurons [2]; [8]): reduced

C[C@]12N[C@H](Cc3ccccc31)c1ccccc12 [MK801]
effect on Aβ-induced increase in [Ca2+]i [1]: nearly abolished
effect on Aβ toxicity (Aβ-induced cell death) (Cortical neurons [2]): greatly attenuated
effect on Aβ-induced [Ca2+]mit rise (neurons): reduced
ROS levels with respect to control (100%, non-treated cells) (Cortical neurons [3]; [7]): 104 ± 3.4%
mitochondrial potential with respect to control (100%, non-treated cells) (Cortical neurons [4]): 85 ± 3%
effect on Aβ-induced [Ca2+]i response in organotypic slices [5]: greatly reduced
PI uptake, fold as compared to control slices treated with antagonist alone ([6]; entorhinal cortex): 1.2 ± 0.4 fold
PI uptake, fold as compared to control slices treated with antagonist alone ([6]; hippocampus): 0.9 ± 0.2 fold

N[C@H](CCCP(=O)(O)O)C(=O)O [AP5, D-(-)-2-Amino-5-phosphonopentanoic acid]
effect on Aβ oligomer-induced inward current (NMDA receptor): reduced the peak of the currents
[Ca2+]i increase, % of control ([1]; Aβ 5 µM plus CTZ 100 µM, CNQX 30 µM (n=17), AP5 100 µM (n=17), both (n=18)): 45 ± 2 % of control
effect on Aβ-induced increase in [Ca2+]i [1]: nearly abolished
effect on Aβ toxicity (Aβ-induced cell death) (Cortical neurons [2]; [8]): greatly attenuated
effect on Aβ-induced [Ca2+]mit rise (neurons): reduced
ROS levels with respect to control (100%, non-treated cells) (Cortical neurons [3]; [7]): 102 ± 11%
mitochondrial potential with respect to control (100%, non-treated cells) (Cortical neurons [4]): 90 ± 2%

Aβ oligomers: soluble Aβ1-42 oligomers prepared from Aβ1-42 (ABX) in Hams F-12 at 4°C for 24 h
[Ca2+]mit levels with respect to the control assay (incubation buffer) (neurons; Aβ 5 µM): increased
ROS levels with respect to control (100%, non-treated cells) (Cortical neurons [3]; Aβ 5 µM alone): 124 ± 7.8%
[Ca2+]i in CA1 neurons of organotypic slices ([5]; Aβ 20 µM in the pipette): increased

C=C(C)[C@H]1CN[C@H](C(=O)O)[C@H]1CC(=O)O [Kainate]
[Ca2+]i in CA1 neurons of organotypic slices ([5]; Aβ 20 µM in the pipette): increases

N#CC(C#N)=NNc1ccc(OC(F)(F)F)cc1 [FCCP]
rhod-2 fluorescence (mitochondrial Ca2+) (neurons; FCCP 25 µM, internal control): rapid and transitory reduction of rhod-2 fluorescence

Reference: patent publication EP2338492A1, “Methods and compositions for the treatment of alzheimer” (Universidad del Pais Vasco, priority 2009, dated 2011)
